Results taken from the supplement of paper PMC10307832.

How the values were obtained:
Test in all cases: relative viability (nuclei count vs DMSO), 5 days (fraction); higher = more cells survive
NCI-H23 = test system: NCI-H23
Summary of the method: (§1)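 Cells from lung cancer lines were seeded into 1536-well plates and, one day later, dosed by pin tool. Treatments were either a single drug or a fixed dose of an anchor drug with five library-drug doses (not always all listed) in √10 steps. After 5 days, nuclei were stained in a one-step fixation (final 0.05% Triton X-100, 1% formaldehyde, 1 ug/ml Hoechst) and counted on 4× images, and relative viability is the treated-to-vehicle nuclei ratio, as the median of duplicate plates.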

NCI-H1792 = test system: NCI-H1792
Summary of the method: as §1

NCI-H1666 = test system: NCI-H1666
Summary of the method: as §1

A-427 = test system: A-427
Summary of the method: as §1

NCI-H596 = test system: NCI-H596
Summary of the method: as §1

HARA = test system: HARA
Summary of the method: as §1

SW 900 = test system: SW 900
Summary of the method: as §1

HCC-44 = test system: HCC-44
Summary of the method: as §1

NCI-H2342 = test system: NCI-H2342
Summary of the method: as §1

HCC-15 = test system: HCC-15
Summary of the method: as §1

COR-L23 = test system: COR-L23
Summary of the method: as §1

NCI-H838 = test system: NCI-H838
Summary of the method: as §1

NCI-H1650 = test system: NCI-H1650
Summary of the method: as §1

NCI-H441 = test system: NCI-H441
Summary of the method: as §1

HCC-827 = test system: HCC-827
Summary of the method: as §1

EKVX = test system: EKVX
Summary of the method: as §1

NCI-H1437 = test system: NCI-H1437
Summary of the method: as §1

SK-MES-1 = test system: SK-MES-1
Summary of the method: as §1

BEN = test system: BEN
Summary of the method: as §1

NCI-H650 = test system: NCI-H650
Summary of the method: as §1

NCI-H1975 = test system: NCI-H1975
Summary of the method: as §1

NCI-H358 = test system: NCI-H358
Summary of the method: as §1

201T = test system: 201T
Summary of the method: as §1

SMILES: CCN(CC)CCCCNc1ncc2cc(-c3cc(OC)cc(OC)c3)c(NC(=O)NC(C)(C)C)nc2n1 + O=C(c1cc(Cc2n[nH]c(=O)c3ccccc23)ccc1F)N1CCN(C(=O)C2CC2)CC1 [Olaparib] (partner 8 µM)
- relative viability (NCI-H23; first compound 0.01 µM): 0.306
- relative viability (NCI-H23; first compound 0.03162 µM): 0.226
- relative viability (NCI-H23; first compound 0.1 µM): 0.375
- relative viability (NCI-H23; first compound 0.3162 µM): 0.362
- relative viability (NCI-H23; first compound 1 µM): 0.332
- relative viability (NCI-H1792; first compound 0.01 µM): 0.547
- relative viability (NCI-H1792; first compound 0.03162 µM): 0.475
- relative viability (NCI-H1792; first compound 0.1 µM): 0.668
- relative viability (NCI-H1792; first compound 0.3162 µM): 0.77
- relative viability (NCI-H1792; first compound 1 µM): 0.317
- relative viability (NCI-H1666; first compound 0.01 µM): 0.812
- relative viability (NCI-H1666; first compound 0.03162 µM): 0.708
- relative viability (NCI-H1666; first compound 0.1 µM): 0.686
- relative viability (NCI-H1666; first compound 0.3162 µM): 0.748
- relative viability (NCI-H1666; first compound 1 µM): 0.719
- relative viability (A-427; first compound 0.01 µM): 0.781
- relative viability (A-427; first compound 0.03162 µM): 0.746
- relative viability (A-427; first compound 0.1 µM): 0.838
- relative viability (A-427; first compound 0.3162 µM): 0.816
- relative viability (A-427; first compound 1 µM): 0.685
- relative viability (NCI-H596; first compound 0.01 µM): 0.649
- relative viability (NCI-H596; first compound 0.03162 µM): 0.727
- relative viability (NCI-H596; first compound 0.1 µM): 0.635
- relative viability (NCI-H596; first compound 0.3162 µM): 0.723
- relative viability (NCI-H596; first compound 1 µM): 0.563
- relative viability (HARA; first compound 0.01 µM): 0.697
- relative viability (HARA; first compound 0.03162 µM): 0.62
- relative viability (HARA; first compound 0.1 µM): 0.561
- relative viability (HARA; first compound 0.3162 µM): 0.811
- relative viability (HARA; first compound 1 µM): 0.443
- relative viability (SW 900; first compound 0.01 µM): 0.834
- relative viability (SW 900; first compound 0.03162 µM): 0.901
- relative viability (SW 900; first compound 0.1 µM): 0.839
- relative viability (SW 900; first compound 0.3162 µM): 0.793
- relative viability (SW 900; first compound 1 µM): 0.592
- relative viability (HCC-44; first compound 0.01 µM): 1.06
- relative viability (HCC-44; first compound 0.03162 µM): 1.07
- relative viability (HCC-44; first compound 0.1 µM): 1.03
- relative viability (HCC-44; first compound 0.3162 µM): 1.01
- relative viability (HCC-44; first compound 1 µM): 0.942
- relative viability (NCI-H2342; first compound 0.01 µM): 0.476
- relative viability (NCI-H2342; first compound 0.03162 µM): 0.437
- relative viability (NCI-H2342; first compound 0.1 µM): 0.459
- relative viability (NCI-H2342; first compound 0.3162 µM): 0.509
- relative viability (NCI-H2342; first compound 1 µM): 0.519
- relative viability (HCC-15; first compound 0.01 µM): 0.681
- relative viability (HCC-15; first compound 0.03162 µM): 0.777
- relative viability (HCC-15; first compound 0.1 µM): 0.783
- relative viability (HCC-15; first compound 0.3162 µM): 0.82
- relative viability (HCC-15; first compound 1 µM): 0.728
- relative viability (COR-L23; first compound 0.01 µM): 0.365
- relative viability (COR-L23; first compound 0.03162 µM): 0.378
- relative viability (COR-L23; first compound 0.1 µM): 0.368
- relative viability (COR-L23; first compound 0.3162 µM): 0.403
- relative viability (COR-L23; first compound 1 µM): 0.344
- relative viability (NCI-H838; first compound 0.01 µM): 0.824
- relative viability (NCI-H838; first compound 0.03162 µM): 0.835
- relative viability (NCI-H838; first compound 0.1 µM): 0.743
- relative viability (NCI-H838; first compound 0.3162 µM): 0.745
- relative viability (NCI-H838; first compound 1 µM): 0.603
- relative viability (NCI-H1650; first compound 0.01 µM): 0.815
- relative viability (NCI-H1650; first compound 0.03162 µM): 0.819
- relative viability (NCI-H1650; first compound 0.1 µM): 0.822
- relative viability (NCI-H1650; first compound 0.3162 µM): 0.635
- relative viability (NCI-H1650; first compound 1 µM): 0.676
- relative viability (NCI-H441; first compound 0.01 µM): 0.601
- relative viability (NCI-H441; first compound 0.03162 µM): 0.556
- relative viability (NCI-H441; first compound 0.1 µM): 0.531
- relative viability (NCI-H441; first compound 0.3162 µM): 0.715
- relative viability (NCI-H441; first compound 1 µM): 0.688
- relative viability (HCC-827; first compound 0.01 µM): 0.611
- relative viability (HCC-827; first compound 0.03162 µM): 0.668
- relative viability (HCC-827; first compound 0.1 µM): 0.702
- relative viability (HCC-827; first compound 0.3162 µM): 0.682
- relative viability (HCC-827; first compound 1 µM): 0.735
- relative viability (EKVX; first compound 0.03162 µM): 0.873
- relative viability (EKVX; first compound 0.1 µM): 1.07
- relative viability (EKVX; first compound 0.3162 µM): 1.05
- relative viability (EKVX; first compound 1 µM): 0.868
- relative viability (NCI-H1437; first compound 0.01 µM): 0.635
- relative viability (NCI-H1437; first compound 0.03162 µM): 0.666
- relative viability (NCI-H1437; first compound 0.1 µM): 0.681
- relative viability (NCI-H1437; first compound 0.3162 µM): 0.642
- relative viability (NCI-H1437; first compound 1 µM): 0.614
- relative viability (SK-MES-1; first compound 0.01 µM): 0.913
- relative viability (SK-MES-1; first compound 0.03162 µM): 0.752
- relative viability (SK-MES-1; first compound 0.1 µM): 0.863
- relative viability (SK-MES-1; first compound 0.3162 µM): 0.735
- relative viability (SK-MES-1; first compound 1 µM): 0.727
- relative viability (BEN; first compound 0.01 µM): 1.18
- relative viability (BEN; first compound 0.03162 µM): 0.97
- relative viability (BEN; first compound 0.1 µM): 1.01
- relative viability (BEN; first compound 0.3162 µM): 1.17
- relative viability (BEN; first compound 1 µM): 1.01
- relative viability (NCI-H650; first compound 0.01 µM): 0.369
- relative viability (NCI-H650; first compound 0.03162 µM): 0.408
- relative viability (NCI-H650; first compound 0.1 µM): 0.41
- relative viability (NCI-H650; first compound 0.3162 µM): 0.355
- relative viability (NCI-H650; first compound 1 µM): 0.391
- relative viability (NCI-H1975; first compound 0.01 µM): 0.85
- relative viability (NCI-H1975; first compound 0.03162 µM): 0.791
- relative viability (NCI-H1975; first compound 0.1 µM): 1.05
- relative viability (NCI-H1975; first compound 0.3162 µM): 0.903
- relative viability (NCI-H1975; first compound 1 µM): 0.708
- relative viability (NCI-H358; first compound 0.01 µM): 0.683
- relative viability (NCI-H358; first compound 0.03162 µM): 0.642
- relative viability (NCI-H358; first compound 0.1 µM): 0.744
- relative viability (NCI-H358; first compound 0.3162 µM): 0.69
- relative viability (NCI-H358; first compound 1 µM): 0.469
- relative viability (201T; first compound 0.01 µM): 0.913
- relative viability (201T; first compound 0.03162 µM): 0.807
- relative viability (201T; first compound 0.1 µM): 0.924
- relative viability (201T; first compound 0.3162 µM): 0.853
- relative viability (201T; first compound 1 µM): 0.719
